Data: patent US8383582B2, “Inhibitor against forming biofilm comprising κ-casein macropeptide” (Industry Foundation of Chonnam National University, priority 2010, dated 2013)

Assays:
Assay type in all cases: cell-based, Listeria monocytogenes
L. monocytogenes Scott A = test: Light microscopy of biofilm on PVC microtiter plates and glass tube; conditions: MWB 24 h, CMP 0.4 mg/ml
Excerpt: The quantification of biofilm production on plastic microtiter plates and glass tubes was based on a previously described method (Djordjevic et al., 2002). As abiotic surfaces for biofilm formation, 96-well polyvinyl chloride (PVC) microplates (BD Biosciences, San Jose, Calif., USA) and Pyrex glass tube (10 mm by 20 mm) were used. Overnight cultures of 12 strains of L. monocytogenes were twice washed with PBS and inoculated at 10^6 CFU/ml in modified Welshimer's broth (MWB) supplemented different concentrations of CMP (Davisco Foods International, Inc., MN, USA; 0.1, 0.2, and 0.4 mg/ml or 1.0, 2.0, and 4.0 mg/ml). After incubation at 30° C. without agitation for 24 and 48 h, the microplates were twice rinsed thoroughly with double-distilled water, and a 0.1% (w/v) solution of crystal violet (CV) was added to stain the attached cells. […] The absorbance at 595 nm of the solubilized dye was subsequently determined by using an enzyme-linked immunosorbent assay (ELISA) plate reader (Molecular Devices, Sunnyvale, Calif., USA). […]
In addition, biofilm formations on PVC microtiter plates and glass tube by L. monocytogenes incubated in MWB for 24 h in the presence or absence of CMP (0.4 mg/ml) were analyzed using light microscopy and microscopic analyses were illustrated in FIGS. 3 and 4, respectively.

L. monocytogenes [1] = test: Biofilm formation on PVC microplates under static condition (crystal violet, A595); conditions: for inhibitory rate of biofilm formation (group): 24 h incubation
Excerpt: The quantification of biofilm production on plastic microtiter plates and glass tubes was based on a previously described method (Djordjevic et al., 2002). As abiotic surfaces for biofilm formation, 96-well polyvinyl chloride (PVC) microplates (BD Biosciences, San Jose, Calif., USA) and Pyrex glass tube (10 mm by 20 mm) were used. Overnight cultures of 12 strains of L. monocytogenes were twice washed with PBS and inoculated at 10^6 CFU/ml in modified Welshimer's broth (MWB) supplemented different concentrations of CMP (Davisco Foods International, Inc., MN, USA; 0.1, 0.2, and 0.4 mg/ml or 1.0, 2.0, and 4.0 mg/ml). After incubation at 30° C. without agitation for 24 and 48 h, the microplates were twice rinsed thoroughly with double-distilled water, and a 0.1% (w/v) solution of crystal violet (CV) was added to stain the attached cells. Following staining at room temperature for 30 min, CV was removed and the wells were rinsed with double-distilled water thrice. After the microplates were air dried, the dye was solubilized with 95% ethanol solution. The absorbance at 595 nm of the solubilized dye was subsequently determined by using an enzyme-linked immunosorbent assay (ELISA) plate reader (Molecular Devices, Sunnyvale, Calif., USA). An equal volume of 95% ethanol was added in the control wells.
All experiments were conducted at least in triplicate. The effects of each treatment were analyzed by analysis of variance (ANOVA) followed by Duncan's test with the SAS software package (version 9.1; SAS, Inc., Cary, N.C., USA). The level of significance was defined at p<0.05.

L. monocytogenes [2] = test: Growth yields in MWB at 30° C.; conditions: data not shown
[3] = system: virulence-associated genes of L. monocytogenes; test: Semi-quantitative RT-PCR of virulence-associated genes; conditions: 0.4 mg/ml CMP; L. monocytogenes Scott A infected HT-29 cells
Experimental: The regulation of virulence-associated genes was investigated by using semi-quantitative RT-PCR techniques. Total RNA was isolated from the each treated samples using a RNeasy™ Total RNA Kit (Qiagen) with manufacturer's manuals. One μg total RNA was reverse transcribed in 20 μl reaction mixtures with SuperScript™ III First-Strand cDNA Synthesis Kit (Invitrogen, Carlsbad, Calif.). Then, cDNA were then amplified by using Taq DNA polymerase (TaKaRa, Japan). For the iap, denaturation for 5 min at 94° C. was followed by 40 cycles composed of 30 s denaturation at 94° C., 45 s annealing at 60° C. (TABLE 4), and 1 min elongation at 72° C. Except for the iap, denaturation for 5 min at 94° C. was followed by 35 cycles composed of 1 min denaturation at 94° C., 2 min annealing at 60° C. (TABLE 4), and 1 min elongation at 72° C. The last cycle was followed by 10 min final elongation at 72° C. Oligonucleotide (Bioneer, Daejun, Korea) sequences used for the amplification of each gene fragments including expression of proteins (HT-29) are shown in TABLE 4 (Haller et al., 2000). The RT-PCR products were electrophoresed in a 1.5% agarose gel and visualized by ethidium bromide (EtBr) staining. The intensity of each band was determined by densitometric analysis of gels using Kodak DC290 zoom digital camera and Kodak 1D image analysis software (Eastman Kodak Company, Rochester, N.Y., USA).

κ-casein macropeptide [CMP] was tested, and the “attached cells (light microscopy)” value (L. monocytogenes Scott A) was “only a small number of L. monocytogenes Scott A cells had attached”, the “inhibitory effects on biofilm formation at low concentrations” value (L. monocytogenes [1]; 0.1, 0.2, or 0.4 mg/ml tested, effect at 0.4 mg/ml) was “profound inhibitory effects” and the “differences in biofilm inhibition among the tested concentrations” value (L. monocytogenes [1]; 1, 2, or 4 mg/ml of CMP) was “no significant differences”. For the same substance, the “decrease of L. monocytogenes biofilms compared to the control” value (L. monocytogenes [1]; PVC microplates, 1, 2, or 4 mg/ml of CMP) was < 90%, the “inhibitory rate of biofilm formation (group)” value (shortened to “inhibitory rate”) (L. monocytogenes [1]; strain 17, PVC microplates) was “high inhibition (90%≦inhibition rate represent high inhibition)” and the “inhibitory rate” value (L. monocytogenes [1]; strain 18, PVC microplates) was “high inhibition (90%≦inhibition rate represent high inhibition)”. For the same substance, the “inhibitory rate” value (L. monocytogenes [1]; strain 70, PVC microplates) was “low inhibition (inhibition rate<87% represent low inhibition)”, the “inhibitory rate” value (L. monocytogenes [1]; strain 106, PVC microplates) was “medium inhibition (87%≦inhibition rate<90% represent medium inhibition)” and the “inhibitory rate” value (L. monocytogenes [1]; strain 303, PVC microplates) was “low inhibition (inhibition rate<87% represent low inhibition)”. For the same substance, the “inhibitory rate” value (L. monocytogenes [1]; strain 3982, PVC microplates) was “high inhibition (90%≦inhibition rate represent high inhibition)”, the “inhibitory rate” value (L. monocytogenes [1]; strain 3990, PVC microplates) was “high inhibition (90%≦inhibition rate represent high inhibition)” and the “inhibitory rate” value (L. monocytogenes [1]; strain Brie-1, PVC microplates) was “high inhibition (90%≦inhibition rate represent high inhibition)”. The “inhibitory rate” value (L. monocytogenes [1]; strain LCDC, PVC microplates) was “low inhibition (inhibition rate<87% represent low inhibition)”, the “inhibitory rate” value (L. monocytogenes [1]; strain Scott A, PVC microplates) was “low inhibition (inhibition rate<87% represent low inhibition)” and the “inhibitory rate” value (L. monocytogenes [1]; strain V7, PVC microplates) was “medium inhibition (87%≦inhibition rate<90% represent medium inhibition)”. The “inhibitory rate” value (L. monocytogenes [1]; strain V37, PVC microplates) was “medium inhibition (87%≦inhibition rate<90% represent medium inhibition)”, the “effect on growth yields” value (L. monocytogenes [2]) was “did not significantly affect” and the “mRNA level of hlyA” value [3] was “significantly repressed”. The “mRNA level of iap” value [3] was “significantly repressed”, the “mRNA level of inlA” value [3] was “significantly repressed” and the “mRNA level of plcB” value [3] was “significantly repressed”.
